Reference: article PMC9969401, “Discovery of 2-(3-Benzamidopropanamido)thiazole-5-carboxylate Inhibitors of the Kinesin HSET (KIFC1) and the Development of Cellular Target Engagement Probes” (Journal of Medicinal Chemistry, 2023)

How the values were obtained:
[1] = biological target: T1, full-length HSET (FL HSET) (Homo sapiens, UniProt Q9BW19); experiment: Competitive binding fluorescence polarization assay (displacement of probe 37); conditions: 400 nM FL HSET, 2.5 nM probe 37; read-out: IC50, displacement of FP probe 37 from FL HSET
T1 construct: 5 nM full-length human N-terminal His-tag HSET; His-tag (N)
T1 sequence (Q9BW19 1-673): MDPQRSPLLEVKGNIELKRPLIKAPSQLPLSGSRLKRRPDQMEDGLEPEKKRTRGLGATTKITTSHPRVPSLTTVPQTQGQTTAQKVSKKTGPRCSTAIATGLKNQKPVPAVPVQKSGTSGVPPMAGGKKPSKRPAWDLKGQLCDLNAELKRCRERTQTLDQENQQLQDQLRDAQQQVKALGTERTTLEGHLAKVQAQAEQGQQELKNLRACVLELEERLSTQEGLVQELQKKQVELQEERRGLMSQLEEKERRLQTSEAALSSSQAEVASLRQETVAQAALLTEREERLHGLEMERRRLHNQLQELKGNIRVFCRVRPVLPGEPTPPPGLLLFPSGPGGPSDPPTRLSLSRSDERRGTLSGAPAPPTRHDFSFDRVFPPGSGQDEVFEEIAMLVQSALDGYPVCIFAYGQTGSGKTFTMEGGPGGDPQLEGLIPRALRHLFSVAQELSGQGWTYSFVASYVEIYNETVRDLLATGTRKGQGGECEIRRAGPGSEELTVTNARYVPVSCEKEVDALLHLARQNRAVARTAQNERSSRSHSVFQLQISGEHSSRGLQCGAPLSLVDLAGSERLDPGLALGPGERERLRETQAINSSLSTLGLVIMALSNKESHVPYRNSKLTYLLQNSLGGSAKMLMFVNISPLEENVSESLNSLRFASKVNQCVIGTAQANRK
Method: (§1) Steady-state fluorescence polarization binding assays were performed using the fluorescence-tagged probe 37. All assays were performed in a black ProxiPlate-384 Plus plate (PerkinElmer, 6008260) in a 10 μL volume in buffer containing 20 mM HEPES pH 7.5, 200 mM NaCl, 1 mM TCEP, 10 mM MgCl2, 0.1 mM Triton X-100, and 5% glycerol (v/v). Full-length human N-terminal His-tag HSET was used, with a final concentration of 2.5 nM 37 probe. The assays were sealed and incubated in the dark at 25 °C and then the FP signal was read on an EnVision multimode plate reader (PerkinElmer Life Sciences) using excitation at 620 nm and parallel and perpendicular emissions at 688 nm. All data processing was done using Prism (GraphPad Software).
For the competition assays, 100 nL of compound dissolved in DMSO or DMSO alone was added to create 11 pt concentration response curves between 100 and 0.001 μM final concentrations. This assay used 400 nM FL HSET, and the plate was read after 2 h of incubation in the dark at 25 °C. IC50 values were determined as for the ATPase assay using a four-parameter statistical logistic curve fit.

[2] = biological target: T2, recombinant full-length HSET (Homo sapiens, UniProt Q9BW19); experiment: ADP-Glo HSET assay (3 μM ATP), microtubule-stimulated ATPase; format: biochemical; conditions: preformed microtubules, 3 μM ATP; mean (±SD) n ≥ 3 (37 n = 2, 38 single determination) (Table 3); read-out: HSET ADP-Glo IC50
T2 construct: 5 nM full-length human N-terminal His-tag HSET; His-tag (N)
T2 sequence (Q9BW19 1-673): T1 sequence (Q9BW19 1-673)
In short: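 His-tagged full-length HSET (5 nM) or GST-Eg5 motor domain (4 nM), with 70 μg/mL paclitaxel-stabilised microtubules in HEPES pH 6.8 buffer, was preincubated with compound for 10 min. ATP was then added (3 or 500 μM for HSET, 4.8 μM for Eg5), followed by 80 min at 25 °C and ADP-Glo luminescence. IC50 was fitted with a four-parameter logistic.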

[3] = biological target: T1, full-length HSET (FL HSET); experiment: Fluorescence polarization probe Kd determination; format: binding
Method: as §1
For the probe Kd determinations, FL HSET final concentrations were used between 2000 and 0.5 nM. When present, preformed microtubules (Universal Biologicals Cambridge, bovine MT001-XL or porcine MT002-XL), which were reconstituted in 15 mM PIPES pH 7, 20 μM paclitaxel, or reconstitution buffer alone, were preincubated with HSET for 10 min and then added to the probe. The plate was read after 3 h of incubation in the dark at 25 °C. Kd values were determined using a 1:1 site binding model of the fluorescence polarization versus protein concentration.

IC50 [1]	IC50 [2]	Kd ([3]; FL HSET + MT buffer only)	Kd ([3]; isolated full-length HSET, no microtubules)	SMILES
0.4 ± 0.066 µM	–	–	–	Nc1ncnc2c1ncn2[C@@H]1O[C@H](COP(=O)(O)OP(=O)(O)O)[C@@H](O)[C@H]1O [ADP, adenosine diphosphate]
–	0.257 µM	0.675 ± 0.148 µM	0.371 µM	CCCOC(=O)c1sc(NC(=O)C[C@H](CCCNC(=O)CCCCC[N+]2=C(/C=C/C=C/C=C3/N(C)c4ccc(S(=O)(=O)O)cc4C3(C)C)C(C)(C)c3cc(S(=O)(=O)O)ccc32)NC(=O)c2cccc(-c3noc(C)n3)c2)nc1C [Compound 37, 3,3-Dimethyl-1-(6-(((S)-4-(3-(5-methyl-1,2,4-oxadiazol-3-yl)benzamido)-6-((4-methyl-5-(propoxycarbonyl)thiazol-2-yl)amino)-6-oxohexyl)amino)-6-oxohexyl)-5-sulfo-2-((1E,3E)-5-((E)-1,3,3-trimethyl-5-sulfoindolin-2-ylidene)penta-1,3-dien-1-yl)-3H-indol-1-ium]
0.436 ± 0.056 µM	–	–	–	Nc1ncnc2c1ncn2[C@@H]1O[C@H](COP(=O)(O)OP(=O)(O)OP(=O)(O)O)[C@@H](O)[C@H]1O [ATP, adenosine 5′-triphosphate]
